Measurements as given in paper PMC10073126, “Levosimendan inhibits disulfide tau oligomerization and ameliorates tau pathology in Tau^P301L-BiFC mice” (Experimental & Molecular Medicine, 2023).

Assays:
HEK293 Tau-BiFC cells = assay: Cell viability of tau-BiFC cells (number of nuclei); assay type: cell-based, human; details: 48 h of treatment
Experimental: HEK293 Tau-BiFC cells were maintained in Dulbecco’s modified Eagle medium (DMEM) supplemented with 10% fetal bovine serum (FBS), 100 units/mL penicillin, 100 µg/mL streptomycin and 100 µg/mL Geneticin (G418) in a humidified atmosphere containing 5% CO2 at 37 °C. Tau-BiFC cells were activated by treatment with FK (30 μM) or tauK18^P301L (5 μg/mL).
For screening of FDA-approved & Passed Phase I Drug Library, tau-BiFC cells were plated on µ-clear 384-well plates. The next day, the cells were cotreated with forskolin and 1,018 library compounds at a concentration of 10 µM. MB and LMTM (3 µM) were used as positive controls. After 46 h, nuclei were counterstained with Hoechst (Invitrogen). BiFC (λex = 460–490 nm and λem = 500–550 nm) and Hoechst (λex = 355–385 nm and λem = 430–500 nm) fluorescence images were acquired automatically by using Operetta® (PerkinElmer). BiFC fluorescence intensity and the number of nuclei were quantified using Harmony 3.1 software (PerkinElmer). Integrated tau-BiFC intensity represents the area of selected cell X mean fluorescence intensity. The means and standard deviations (S.D.) of BiFC fluorescence intensities and the number of nuclei were plotted using GraphPad Prism.

tau cysteines = assay: Covalent binding to tau (14C autoradiography, MALDI-TOF of R1-R4 peptides); details: repeat domain:levosimendan 1:10, RT
Experimental: TauK18 (1 mg/mL, 72 μM) was incubated with ^14C-levosimendan (720 μM) in PBS containing 5% DMSO at RT for 2 h. Then, the mixture was separated on a 15% SDS–PAGE gel under nonreducing conditions and stained with Coomassie blue. For autoradiography, the SDS–PAGE gel was transferred to a PVDF membrane and scanned by Typhoon FLA 7000 IP (GE Healthcare).
Each repeat domain (R1, R2, R3, R4, R2-C291S or R3-C322S, 150 μM) was incubated with levosimendan (molar ratio 1:10 of a tau repeat domain: levosimendan) at RT for 37 h. The samples were mixed with matrix solution (10 mg mL^−1 sinapinic acid in 0.1% (v/v) trifluoroacetic acid/CAN) at a ratio of 1:1. The mixtures were directly spotted onto the MALDI target and dried. Mass spectra were acquired in reflection/linear positive ion mode in the m/z range of 2000–100,000 using an Ultraflex III TOF/TOF mass spectrometer controlled by Flex Control 3.0 (Bruker Daltonics). The default operating conditions were as follows: ion source 1, 25.0 kV; ion source 2, 23.0 kV; lens voltage, 6.0 kV; laser repetition rate = 100 Hz. All spectra were generated automatically in the instrument software and based on averaging 1000 shots from 10 nonoverlapping positions (100 shots/position).

[1] = 1H NMR of reaction with N-acetyl-L-cysteine methyl ester; details: room temperature
Experimental: NMR analysis was performed at 25 °C and recorded in δ units relative to deuterated solvent as an internal reference using a 400 MHz NMR instrument (Bruker). Deuterated phosphate-buffered saline (d-PBS) was prepared at a concentration of 50 mM (D2O + H2O, 1:1, v/v). Levosimendan (50 mg, […], 1 equivalent) reacted with N-acetyl-L-cysteine methyl ester (38 mg, […], 1.2 equivalent) in 10 mL of d-PBS/DMSO-d6 (1:1, v/v) at room temperature, and the reaction was checked at various time points. For the reversibility study, the reaction mixture was diluted ten times with d-PBS/DMSO-d6 (1:1, v/v) and monitored at room temperature.

tauK18 = target: T1, tauK18 (Homo sapiens, UniProt P10636); assay: Transmission electron microscopy of tau filaments and oligomers; assay type: biochemical; details: tauK18 preaggregates; DMSO control 13.7 ± 5.2 nm
T1 construct: under in vitro conditions using a purified tauK18 fragment; 6xHis; made in house; host or cells: E. coli BL21 (DE3)
T1 sequence (P10636 561-685 limits assumed): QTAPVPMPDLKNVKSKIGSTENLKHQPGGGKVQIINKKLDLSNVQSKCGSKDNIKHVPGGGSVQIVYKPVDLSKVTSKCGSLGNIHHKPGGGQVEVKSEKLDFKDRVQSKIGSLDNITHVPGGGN
Experimental: Samples were placed onto carbon-coated copper electron microscopy grids and then negatively stained with 2% (w/v) aqueous uranyl acetate for 1 min. To image the tau filaments (Fig. 3d), the grids were observed using a JEM-1011 transmission electron microscope (JEOL) at an acceleration voltage of 80 kV. To image the tau filaments and oligomers (Figs. 3f and 4e), the grids were observed using a Tecni G2 F20 transmission electron microscope (FEI) at an acceleration voltage of 120 kV. Eight to twelve random images from each experimental condition were captured by the operator as a blind observer.

[2] = parameters: method as in PMID 15489122; details: in humans; cited from earlier work

| SMILES | GI50 (HEK293 Tau-BiFC cells; Tau-BiFC^ON by forskolin (30 μM)) [µM] | GI50 (HEK293 Tau-BiFC cells; Tau-BiFC^ON by tauK18^P301L (5 μg/mL)) [µM] | Covalent attachment to tau repeat domains (MALDI-mass spectrometry) (tau cysteines) | Time to almost complete restoration of levosimendan upon ten-fold dilution ([1]; reaction mixture diluted ten times) [days] | Time to complete formation of the levosimendan-cysteine conjugate ([1]; with N-acetyl-L-cysteine methyl ester) [h] | Diameter (width) of tau particles (TEM) (tauK18) [nm] | Portion of levosimendan metabolized to OR-1855 and OR-1896 [2] [%] |
| --- | --- | --- | --- | --- | --- | --- | --- |
| CN(C)c1ccc2c(c1)Sc1cc(N(C)C)ccc1N2.CS(=O)(=O)O.CS(=O)(=O)O [LMTM, leucomethylene blue mesylate] | 6.4 ± 0.3 | 6.6 ± 0.3 |  |  |  |  |  |
| C[C@@H]1CC(=O)NN=C1c1ccc(NN=C(C#N)C#N)cc1 [Levosimendan] |  |  | covalently attached to the R2 and R3 domains | 5 | ≤ 2 | 8.8 ± 2.0 | 5 |
